Measurements: the supplement of paper PMC10307832

Experiments:
Assay in all cases: relative viability (nuclei count vs DMSO), 5 days (fraction); higher = more cells survive
Tipifarnib + Decitabine = compound: Cn1cncc1[C@@](N)(c1ccc(Cl)cc1)c1ccc2c(c1)c(-c1cccc(Cl)c1)cc(=O)n2C [Tipifarnib] + Nc1ncn([C@H]2C[C@H](O)[C@@H](CO)O2)c(=O)n1 [Decitabine] (partner 2 µM)
Outline: (§1)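 The day after seeding in 1536-well plates, lung cancer cell lines were treated by pin tool with a single drug, or with a fixed anchor-drug dose together with five library-drug doses (not always all listed) in √10 steps. After 5 days, a combined fix-and-stain solution (final 0.05% Triton X-100, 1% formaldehyde, 1 ug/ml Hoechst) was added. Nuclei counted on 4× images gave relative viability as treated counts over vehicle counts, reported as the median of duplicate plates.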

Tipifarnib + Foretinib = compound: Cn1cncc1[C@@](N)(c1ccc(Cl)cc1)c1ccc2c(c1)c(-c1cccc(Cl)c1)cc(=O)n2C [Tipifarnib] + COc1cc2c(Oc3ccc(NC(=O)C4(C(=O)Nc5ccc(F)cc5)CC4)cc3F)ccnc2cc1OCCCN1CCOCC1 [Foretinib] (partner 0.25 µM)
Outline: as §1

Tipifarnib + Dasatinib = compound: Cn1cncc1[C@@](N)(c1ccc(Cl)cc1)c1ccc2c(c1)c(-c1cccc(Cl)c1)cc(=O)n2C [Tipifarnib] + Cc1nc(Nc2ncc(C(=O)Nc3c(C)cccc3Cl)s2)cc(N2CCN(CCO)CC2)n1 [Dasatinib] (partner 0.075 µM)
Outline: as §1

Tipifarnib + Luminespib = compound: Cn1cncc1[C@@](N)(c1ccc(Cl)cc1)c1ccc2c(c1)c(-c1cccc(Cl)c1)cc(=O)n2C [Tipifarnib] + CCNC(=O)c1noc(-c2cc(C(C)C)c(O)cc2O)c1-c1ccc(CN2CCOCC2)cc1 [Luminespib] (partner 0.01 µM)
Outline: as §1

| Cell Line | relative viability (Tipifarnib + Decitabine; first compound 0.01 µM) | relative viability (Tipifarnib + Decitabine; first compound 0.03162 µM) | relative viability (Tipifarnib + Decitabine; first compound 0.1 µM) | relative viability (Tipifarnib + Decitabine; first compound 0.3162 µM) | relative viability (Tipifarnib + Decitabine; first compound 1 µM) | relative viability (Tipifarnib + Foretinib; first compound 0.01 µM) | relative viability (Tipifarnib + Foretinib; first compound 0.03162 µM) | relative viability (Tipifarnib + Foretinib; first compound 0.1 µM) | relative viability (Tipifarnib + Foretinib; first compound 0.3162 µM) | relative viability (Tipifarnib + Foretinib; first compound 1 µM) | relative viability (Tipifarnib + Dasatinib; first compound 0.01 µM) | relative viability (Tipifarnib + Dasatinib; first compound 0.03162 µM) | relative viability (Tipifarnib + Dasatinib; first compound 0.1 µM) | relative viability (Tipifarnib + Dasatinib; first compound 0.3162 µM) | relative viability (Tipifarnib + Dasatinib; first compound 1 µM) | relative viability (Tipifarnib + Luminespib; first compound 0.01 µM) | relative viability (Tipifarnib + Luminespib; first compound 0.03162 µM) | relative viability (Tipifarnib + Luminespib; first compound 0.1 µM) | relative viability (Tipifarnib + Luminespib; first compound 0.3162 µM) | relative viability (Tipifarnib + Luminespib; first compound 1 µM) |
| --- | --- | --- | --- | --- | --- | --- | --- | --- | --- | --- | --- | --- | --- | --- | --- | --- | --- | --- | --- | --- |
| HCC-15 | 0.496 | 0.523 | 0.48 | 0.263 | 0.238 | 0.967 | 0.917 | 0.785 | 0.635 | 0.595 | 0.627 | 0.556 | 0.444 | 0.377 | 0.168 | 0.332 | 0.306 | 0.245 | 0.302 | 0.357 |
| HCC-44 | 0.869 | 0.846 | 0.934 | 0.847 | 0.804 | – | – | – | – | – | – | – | – | – | – | 0.98 | 0.93 | 0.899 | 0.839 | 0.855 |
| HCC-78 | 0.786 | 0.756 | 0.719 | 0.664 | 0.514 | 0.58 | 0.546 | 0.491 | 0.513 | 0.461 | 0.327 | 0.428 | 0.273 | 0.371 | 0.266 | – | – | – | – | – |
| HCC-366 | 0.345 | 0.337 | 0.19 | 0.174 | 0.16 | 1.04 | 0.995 | 0.586 | 0.631 | 0.121 | 0.78 | 0.65 | 0.353 | 0.331 | 0.046 | – | – | – | – | – |
| HCC-827 | 0.324 | 0.333 | 0.293 | 0.293 | 0.259 | 1.06 | 1.05 | 0.741 | 0.63 | 0.568 | 0.372 | 0.363 | 0.446 | 0.403 | 0.431 | 1.06 | 0.471 | 0.279 | 0.365 | 0.256 |
| HOP-62 | 0.204 | 0.225 | 0.196 | 0.254 | 0.191 | 0.809 | 0.671 | 0.464 | 0.305 | 0.542 | 0.683 | 0.392 | 0.37 | 0.277 | 0.338 | 0.653 | 0.611 | 0.401 | 0.374 | 0.349 |
| IA-LM | – | – | – | – | – | 0.905 | 0.55 | 0.47 | 0.299 | 0.33 | – | – | – | – | – | – | – | – | – | – |
| LC-2-ad | 0.871 | 0.913 | 0.77 | 0.802 | 0.641 | 0.968 | 0.896 | 0.807 | 0.609 | 0.657 | 0.54 | 0.545 | 0.496 | 0.277 | 0.336 | 1.02 | 0.897 | 0.767 | 0.753 | 0.717 |
| LCLC-97TM1 | 0.242 | 0.242 | 0.308 | 0.225 | 0.205 | 1.03 | 0.852 | 0.898 | 0.802 | 0.685 | 0.833 | 0.704 | 0.745 | 0.64 | 0.383 | 0.799 | 0.751 | 0.662 | 0.52 | 0.574 |
| LCLC-103H | 0.757 | 0.672 | 0.785 | 0.635 | 0.673 | 0.865 | 0.869 | 0.59 | 0.548 | 0.418 | 0.47 | 0.441 | 0.426 | 0.345 | 0.328 | 0.991 | 0.892 | 0.693 | 0.662 | 0.521 |
| LK-2 | 0.375 | 0.266 | 0.276 | 0.265 | 0.139 | 1.15 | 1.02 | 1.03 | 0.578 | 0.726 | 0.276 | 0.261 | 0.27 | 0.299 | 0.191 | 0.191 | 0.172 | 0.207 | 0.172 | 0.175 |
| NCI-H522 | 0.657 | 0.725 | 0.582 | 0.586 | 0.592 | – | – | – | – | – | 0.95 | 0.912 | 0.861 | 0.82 | 0.788 | 0.831 | 1.33 | 1.18 | 1.08 | 1.27 |
| NCI-H1299 | – | – | – | – | – | 1.06 | 1.04 | 1 | 0.947 | 0.979 | – | – | – | – | – | – | – | – | – | – |
| NCI-H1563 | – | – | – | – | – | 1.03 | 1.04 | 0.879 | 0.82 | 0.87 | 0.44 | 0.53 | 0.453 | 0.489 | 0.387 | 0.491 | 0.558 | 0.538 | 0.519 | 0.526 |
| NCI-H1648 | 0.603 | 0.48 | 0.608 | 0.51 | 0.338 | – | – | – | – | – | – | – | – | – | – | – | – | – | – | – |
| NCI-H1703 | – | – | – | – | – | 0.343 | 0.247 | 0.325 | 0.267 | 0.294 | – | – | – | – | – | – | – | – | – | – |
| NCI-H1792 | 0.446 | 0.439 | 0.308 | 0.28 | 0.272 | – | – | – | – | – | 1.01 | 0.821 | 0.571 | 0.524 | 0.484 | 0.505 | 0.329 | 0.379 | 0.268 | 0.262 |
| NCI-H2228 | – | – | – | – | – | 1.04 | 0.815 | 0.636 | 0.495 | 0.672 | 0.531 | 0.52 | 0.456 | 0.266 | 0.184 | 0.126 | 0.126 | 0.165 | 0.145 | 0.157 |
